Source: ChEMBL document CHEMBL1201862, “PubChem BioAssay data set” (2004)
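Protocol summary: plate cells (96-well), add compound at 5 concentrations, incubate 48 h, interpolate endpoints linearly. GI50 is the concentration that inhibits growth by half.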 Active and inactive are the calls of the source. No stated cut-off is given here; in the data, active = GI50 up to about 1.1 µM and inactive = higher.

Assays:
Assay in all cases: NCI tumour cell line growth inhibition, 48 h
HOP-92 = test system: HOP-92
CAKI-1 = test system: CAKI-1
HCC 2998 = test system: HCC 2998
MDA-MB-435 = test system: MDA-MB-435
OVCAR-8 = test system: OVCAR-8
SK-MEL-5 = test system: SK-MEL-5
Hs-578T = test system: Hs-578T
786-0 = test system: 786-0
OVCAR-5 = test system: OVCAR-5
EKVX = test system: EKVX
DU-145 = test system: DU-145
KM12 = test system: KM12
SR = test system: SR
HCT-15 = test system: HCT-15
UACC-62 = test system: UACC-62
TK-10 = test system: TK-10
A549 = test system: A549
LOX IMVI = test system: LOX IMVI
IGROV-1 = test system: IGROV-1
NCI-H522 = test system: NCI-H522
SK-OV-3 = test system: SK-OV-3
T47D = test system: T47D
UACC-257 = test system: UACC-257
CCRF-CEM = test system: CCRF-CEM
BT-549 = test system: BT-549
UO-31 = test system: UO-31
HL-60 = test system: HL-60
ACHN = test system: ACHN
SN12C = test system: SN12C
A498 = test system: A498
NCI/ADR-RES = test system: NCI/ADR-RES
MCF7 = test system: MCF7
OVCAR-4 = test system: OVCAR-4
HOP-62 = test system: HOP-62
HCT-116 = test system: HCT-116
NCI-H23 = test system: NCI-H23
RPMI-8226 = test system: RPMI-8226
OVCAR-3 = test system: OVCAR-3
SW-620 = test system: SW-620
SK-MEL-28 = test system: SK-MEL-28
SNB-19 = test system: SNB-19
U-251 = test system: U-251
COLO 205 = test system: COLO 205
SK-MEL-2 = test system: SK-MEL-2
MOLT-4 = test system: MOLT-4
SNB-75 = test system: SNB-75
HT-29 = test system: HT-29
PC-3 = test system: PC-3
NCI-H460 = test system: NCI-H460
MDA-MB-231 = test system: MDA-MB-231
SF-268 = test system: SF-268
K562 = test system: K562
M14 = test system: M14
NCI-H226 = test system: NCI-H226
RXF 393 = test system: RXF 393
MDA-N = test system: MDA-N
SF-295 = test system: SF-295
SF-539 = test system: SF-539
Malme-3M = test system: Malme-3M

`NC(=O)C1=C(c2ccccc2)c2ccccc2C1=O` was tested, and the GI50 (HOP-92) was 17.7 µM (inactive), the GI50 (CAKI-1) was 16 µM (inactive) and the GI50 (HCC 2998) was 15.8 µM (inactive). For the same molecule, the GI50 (MDA-MB-435) was 26.1 µM (inactive), the GI50 (OVCAR-8) was 15.6 µM (inactive) and the GI50 (SK-MEL-5) was 16.3 µM (inactive). The GI50 (Hs-578T) was 24.8 µM (inactive), the GI50 (786-0) was 15.7 µM (inactive) and the GI50 (OVCAR-5) was 18.6 µM (inactive). For the same molecule, the GI50 (EKVX) was 18.8 µM (inactive), the GI50 (DU-145) was 17.1 µM (inactive) and the GI50 (KM12) was 16.1 µM (inactive). For the same molecule, the GI50 (SR) was 4.78 µM (inactive), the GI50 (HCT-15) was 12.3 µM and the GI50 (UACC-62) was 17.4 µM (inactive). For the same molecule, the GI50 (TK-10) was 18.1 µM (inactive), the GI50 (A549) was 18.6 µM (inactive) and the GI50 (LOX IMVI) was 7.98 µM (inactive). For the same molecule, the GI50 (IGROV-1) was 16.1 µM (inactive), the GI50 (NCI-H522) was 18.6 µM (inactive) and the GI50 (SK-OV-3) was 18.3 µM (inactive). The GI50 (T47D) was 19.1 µM (inactive), the GI50 (UACC-257) was 13.6 µM (inactive) and the GI50 (CCRF-CEM) was 2.75 µM (inactive). The GI50 (BT-549) was 16.9 µM (inactive), the GI50 (UO-31) was 18.8 µM (inactive) and the GI50 (HL-60) was 3.57 µM (inactive). The GI50 (ACHN) was 11.4 µM (inactive), the GI50 (SN12C) was 18.5 µM (inactive) and the GI50 (A498) was 28 µM (inactive). The GI50 (NCI/ADR-RES) was 17.7 µM (inactive), the GI50 (MCF7) was 16.1 µM (inactive) and the GI50 (OVCAR-4) was 18.5 µM (inactive). The GI50 (HOP-62) was 14.9 µM (inactive), the GI50 (HCT-116) was 16.9 µM (inactive) and the GI50 (NCI-H23) was 18.1 µM (inactive). The GI50 (RPMI-8226) was 14.6 µM (inactive), the GI50 (OVCAR-3) was 11.8 µM (inactive) and the GI50 (SW-620) was 25.1 µM (inactive). The GI50 (SK-MEL-28) was 20.1 µM (inactive), the GI50 (SNB-19) was 17.7 µM (inactive) and the GI50 (U-251) was 18.3 µM (inactive). The GI50 (COLO 205) was 22 µM (inactive), the GI50 (SK-MEL-2) was 19.9 µM (inactive) and the GI50 (MOLT-4) was 3.37 µM (inactive). For the same molecule, the GI50 (SNB-75) was 19.7 µM (inactive), the GI50 (HT-29) was 16.6 µM (inactive) and the GI50 (PC-3) was 17.8 µM (inactive). The GI50 (NCI-H460) was 15.9 µM (inactive), the GI50 (MDA-MB-231) was 17.8 µM (inactive) and the GI50 (SF-268) was 17.8 µM (inactive). For the same molecule, the GI50 (K562) was 38.1 µM (inactive), the GI50 (M14) was 19.1 µM (inactive) and the GI50 (NCI-H226) was 18.2 µM (inactive). The GI50 (RXF 393) was 19.7 µM (inactive), the GI50 (MDA-N) was 19.5 µM (inactive) and the GI50 (SF-295) was 23 µM (inactive).

In the case of `O=C1NC2CCCCC2N=C1CC(=O)c1ccc(Br)cc1` (centres undefined), the GI50 (HOP-92) is reported as 10.2 µM (inactive), the GI50 (CAKI-1) is reported as > 100 µM (inactive) and the GI50 (HCC 2998) is reported as 39 µM (inactive). The GI50 (MDA-MB-435) was > 100 µM (inactive), the GI50 (OVCAR-8) was 4.19 µM (inactive) and the GI50 (SF-539) was 26.8 µM (inactive). For the same molecule, the GI50 (SK-MEL-5) was > 100 µM (inactive), the GI50 (Hs-578T) was 4.86 µM (inactive) and the GI50 (786-0) was 64.1 µM (inactive). The GI50 (OVCAR-5) was > 100 µM (inactive), the GI50 (EKVX) was 17.8 µM (inactive) and the GI50 (DU-145) was > 100 µM (inactive). For the same molecule, the GI50 (KM12) was > 100 µM (inactive), the GI50 (SR) was > 100 µM (inactive) and the GI50 (HCT-15) was 29.4 µM. For the same molecule, the GI50 (UACC-62) was 4.57 µM (inactive), the GI50 (TK-10) was 74.5 µM (inactive) and the GI50 (A549) was 6 µM (inactive). For the same molecule, the GI50 (LOX IMVI) was 19.2 µM (inactive), the GI50 (Malme-3M) was > 100 µM (inactive) and the GI50 (IGROV-1) was 5.22 µM (inactive). The GI50 (NCI-H522) was 3.05 µM (inactive), the GI50 (SK-OV-3) was 28.2 µM (inactive) and the GI50 (T47D) was 3.94 µM (inactive). For the same molecule, the GI50 (UACC-257) was > 100 µM (inactive), the GI50 (CCRF-CEM) was 5.2 µM (inactive) and the GI50 (BT-549) was 14.6 µM (inactive). The GI50 (UO-31) was 3.86 µM (inactive), the GI50 (HL-60) was > 100 µM (inactive) and the GI50 (ACHN) was 49.1 µM (inactive). For the same molecule, the GI50 (SN12C) was 27.7 µM (inactive), the GI50 (A498) was > 100 µM (inactive) and the GI50 (NCI/ADR-RES) was 4.07 µM (inactive). The GI50 (MCF7) was 18 µM (inactive), the GI50 (HOP-62) was 31.8 µM (inactive) and the GI50 (HCT-116) was 66.2 µM (inactive). For the same molecule, the GI50 (NCI-H23) was > 100 µM (inactive), the GI50 (RPMI-8226) was 2.83 µM (inactive) and the GI50 (OVCAR-3) was > 100 µM (inactive). For the same molecule, the GI50 (SW-620) was > 100 µM (inactive), the GI50 (SK-MEL-28) was > 100 µM (inactive) and the GI50 (SNB-19) was > 100 µM (inactive). For the same molecule, the GI50 (U-251) was 20.6 µM (inactive), the GI50 (COLO 205) was > 100 µM (inactive) and the GI50 (SK-MEL-2) was 70.6 µM (inactive). The GI50 (MOLT-4) was 5.61 µM (inactive), the GI50 (HT-29) was > 100 µM (inactive) and the GI50 (PC-3) was 32.7 µM (inactive). For the same molecule, the GI50 (NCI-H460) was 3.4 µM (inactive), the GI50 (MDA-MB-231) was 16.2 µM (inactive) and the GI50 (SF-268) was 28.6 µM (inactive). For the same molecule, the GI50 (K562) was > 100 µM (inactive), the GI50 (M14) was > 100 µM (inactive) and the GI50 (NCI-H226) was 4.22 µM (inactive). The GI50 (RXF 393) was 19.5 µM (inactive), the GI50 (MDA-N) was > 100 µM (inactive) and the GI50 (SF-295) was 17.9 µM (inactive).
